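GI50 = concentration required for 50% inhibition of growth. TGI is the concentration that stops growth completely.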
How the values were obtained:
Test in all cases: growth of human tumour cells (NCI), 384-well format
MOLT-4 leukemia = test system: MOLT-4 leukemia
UACC-257 melanoma = test system: UACC-257 melanoma
NCI-H322M lung = test system: NCI-H322M lung
MALME-3M melanoma = test system: MALME-3M melanoma
SNB-75 CNS = test system: SNB-75 CNS
MDA-MB-435 melanoma = test system: MDA-MB-435 melanoma
SK-MEL-28 melanoma = test system: SK-MEL-28 melanoma
ACHN renal = test system: ACHN renal
M14 melanoma = test system: M14 melanoma
T-47D breast = test system: T-47D breast
SN12C renal = test system: SN12C renal
SF-268 CNS = test system: SF-268 CNS
NCI-H522 lung = test system: NCI-H522 lung
U251 glioblastoma = test system: U251 glioblastoma
HOP-62 NSCLC = test system: HOP-62 NSCLC
HS 578T breast = test system: HS 578T breast
HT29 colon = test system: HT29 colon
BT-549 breast = test system: BT-549 breast
RPMI-8226 leukemia = test system: RPMI-8226 leukemia
COLO 205 colon = test system: COLO 205 colon
OVCAR-3 ovarian = test system: OVCAR-3 ovarian
MDA-MB-231 breast = test system: MDA-MB-231 breast
NCI-H23 lung = test system: NCI-H23 lung
A498 renal = test system: A498 renal
MCF7 breast = test system: MCF7 breast
EKVX NSCLC = test system: EKVX NSCLC
HCC-2998 colon = test system: HCC-2998 colon
SF-539 CNS = test system: SF-539 CNS
OVCAR-8 ovarian = test system: OVCAR-8 ovarian
786-0 renal = test system: 786-0 renal
RXF 393 renal = test system: RXF 393 renal
OVCAR-4 ovarian = test system: OVCAR-4 ovarian
CCRF-CEM leukemia = test system: CCRF-CEM leukemia
SK-MEL-5 melanoma = test system: SK-MEL-5 melanoma
SF-295 CNS = test system: SF-295 CNS
KM12 colon = test system: KM12 colon
TK-10 renal = test system: TK-10 renal
LOX IMVI melanoma = test system: LOX IMVI melanoma
DU-145 prostate = test system: DU-145 prostate
UACC-62 melanoma = test system: UACC-62 melanoma
SK-OV-3 ovarian = test system: SK-OV-3 ovarian
SW-620 colon = test system: SW-620 colon
NCI-H460 NSCLC = test system: NCI-H460 NSCLC
PC-3 prostate = test system: PC-3 prostate
HL-60(TB) leukemia = test system: HL-60(TB) leukemia
OVCAR-5 ovarian = test system: OVCAR-5 ovarian
SK-MEL-2 melanoma = test system: SK-MEL-2 melanoma
HCT-15 colon = test system: HCT-15 colon
NCI/ADR-RES ovarian = test system: NCI/ADR-RES ovarian

C[C@@H](Oc1ccc2[nH]nc(/C=C/c3cnn(CCO)c3)c2c1)c1c(Cl)cncc1Cl
GI50 (MOLT-4 leukemia): 19.5 nM
TGI (MOLT-4 leukemia): 48.8 nM
GI50 (UACC-257 melanoma): 1150 nM
TGI (UACC-257 melanoma): 2530 nM
GI50 (NCI-H322M lung): 331 nM
TGI (NCI-H322M lung): 2480 nM
GI50 (MALME-3M melanoma): 1120 nM
TGI (MALME-3M melanoma): 2340 nM
GI50 (SNB-75 CNS): 23.4 nM
TGI (SNB-75 CNS): 213 nM
GI50 (MDA-MB-435 melanoma): 1140 nM
TGI (MDA-MB-435 melanoma): 2500 nM
GI50 (SK-MEL-28 melanoma): 1310 nM
TGI (SK-MEL-28 melanoma): 2630 nM
GI50 (ACHN renal): 85.8 nM
TGI (ACHN renal): > 100000 nM
GI50 (M14 melanoma): 331 nM
TGI (M14 melanoma): 2040 nM
GI50 (T-47D breast): 263 nM
TGI (T-47D breast): > 100000 nM
GI50 (SN12C renal): 47.7 nM
TGI (SN12C renal): 343 nM
GI50 (SF-268 CNS): 124 nM
TGI (SF-268 CNS): 384 nM
GI50 (NCI-H522 lung): 31 nM
TGI (NCI-H522 lung): 554 nM
GI50 (U251 glioblastoma): 156 nM
TGI (U251 glioblastoma): 766 nM
GI50 (HOP-62 NSCLC): 82 nM
TGI (HOP-62 NSCLC): 1080 nM
GI50 (HS 578T breast): 29.7 nM
TGI (HS 578T breast): 229 nM
GI50 (HT29 colon): 278 nM
TGI (HT29 colon): > 100000 nM
GI50 (BT-549 breast): 61.2 nM
TGI (BT-549 breast): 229 nM
GI50 (RPMI-8226 leukemia): 34.3 nM
TGI (RPMI-8226 leukemia): 1330 nM
GI50 (COLO 205 colon): 24.8 nM
TGI (COLO 205 colon): 105 nM
GI50 (OVCAR-3 ovarian): 74.5 nM
TGI (OVCAR-3 ovarian): 1570 nM
GI50 (MDA-MB-231 breast): 161 nM
TGI (MDA-MB-231 breast): 3450 nM
GI50 (NCI-H23 lung): 43.3 nM
TGI (NCI-H23 lung): 333 nM
GI50 (A498 renal): 171 nM
TGI (A498 renal): > 100000 nM
GI50 (MCF7 breast): 46.3 nM
TGI (MCF7 breast): 1600 nM
GI50 (EKVX NSCLC): 36.8 nM
TGI (EKVX NSCLC): 757 nM
GI50 (HCC-2998 colon): 399 nM
TGI (HCC-2998 colon): 2120 nM
GI50 (SF-539 CNS): 23.7 nM
TGI (SF-539 CNS): 154 nM
GI50 (OVCAR-8 ovarian): 174 nM
TGI (OVCAR-8 ovarian): 1450 nM
GI50 (786-0 renal): 214 nM
TGI (786-0 renal): 1200 nM
GI50 (RXF 393 renal): 54.4 nM
TGI (RXF 393 renal): 230 nM
GI50 (OVCAR-4 ovarian): 1500 nM
TGI (OVCAR-4 ovarian): 4750 nM
GI50 (CCRF-CEM leukemia): 25.5 nM
TGI (CCRF-CEM leukemia): 60.5 nM
GI50 (SK-MEL-5 melanoma): 510 nM
TGI (SK-MEL-5 melanoma): 1920 nM
GI50 (SF-295 CNS): 71.1 nM
TGI (SF-295 CNS): 2060 nM
GI50 (KM12 colon): < 10 nM
TGI (KM12 colon): 145 nM
GI50 (TK-10 renal): 98.6 nM
TGI (TK-10 renal): 606 nM
GI50 (LOX IMVI melanoma): 70 nM
TGI (LOX IMVI melanoma): 199 nM
GI50 (DU-145 prostate): 97.2 nM
TGI (DU-145 prostate): 755 nM
GI50 (UACC-62 melanoma): 1290 nM
TGI (UACC-62 melanoma): 2590 nM
GI50 (SK-OV-3 ovarian): 114 nM
GI50 (SW-620 colon): 60.5 nM
TGI (SW-620 colon): 469 nM
GI50 (NCI-H460 NSCLC): 37 nM
TGI (NCI-H460 NSCLC): 1090 nM
GI50 (PC-3 prostate): 1280 nM
TGI (PC-3 prostate): > 100000 nM
GI50 (HL-60(TB) leukemia): 31.7 nM
TGI (HL-60(TB) leukemia): 131 nM
GI50 (OVCAR-5 ovarian): 111 nM
TGI (OVCAR-5 ovarian): 475 nM
GI50 (SK-MEL-2 melanoma): 606 nM
TGI (SK-MEL-2 melanoma): 2130 nM
GI50 (HCT-15 colon): 117 nM
TGI (HCT-15 colon): 1250 nM
GI50 (NCI/ADR-RES ovarian): 227 nM
TGI (NCI/ADR-RES ovarian): 1410 nM
